# From PubChem BioAssay (NCI)
#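 All cell lines were grown in 96-well plates and treated with compound for 48 hours. TGI: concentration producing complete growth inhibition.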
# Assays:
# Experiment in all cases: NCI-60 cell line screen, 48 h
# HOP-62 NSCLC = test system: HOP-62 NSCLC
# HS 578T breast = test system: HS 578T breast
# NCI-H23 lung = test system: NCI-H23 lung
# NCI/ADR-RES ovarian = test system: NCI/ADR-RES ovarian
# HCC-2998 colon = test system: HCC-2998 colon
# MDA-MB-231 breast = test system: MDA-MB-231 breast
# MOLT-4 leukemia = test system: MOLT-4 leukemia
# M14 melanoma = test system: M14 melanoma
# A498 renal = test system: A498 renal
# UACC-257 melanoma = test system: UACC-257 melanoma
# MDA-MB-435 = test system: MDA-MB-435
# OVCAR-4 ovarian = test system: OVCAR-4 ovarian
# NCI-H226 lung = test system: NCI-H226 lung
# CCRF-CEM leukemia = test system: CCRF-CEM leukemia
# CAKI-1 renal = test system: CAKI-1 renal
# HT29 colon = test system: HT29 colon
# SR leukemia = test system: SR leukemia
SMILES,TGI (HOP-62 NSCLC) [µM],TGI (HS 578T breast) [µM],TGI (NCI-H23 lung) [µM],TGI (NCI/ADR-RES ovarian) [µM],TGI (HCC-2998 colon) [µM],TGI (MDA-MB-231 breast) [µM],TGI (MOLT-4 leukemia) [µM],TGI (M14 melanoma) [µM],TGI (A498 renal) [µM],TGI (UACC-257 melanoma) [µM],TGI (MDA-MB-435) [µM],TGI (OVCAR-4 ovarian) [µM],TGI (NCI-H226 lung) [µM],TGI (CCRF-CEM leukemia) [µM],TGI (CAKI-1 renal) [µM],TGI (HT29 colon) [µM],TGI (SR leukemia) [µM]
CNNC1=NS(=O)(=O)c2cc(C(=O)OC)c(Cl)cc2S1,> 10,> 10,> 10,> 10,> 10,> 10,> 10,> 10,> 10,> 10,> 10,> 10,> 10,> 10,> 10,> 10,
O=C(CCNC(=O)OCc1ccccc1)OCCCNC(=O)OCc1ccccc1,> 100,> 100,> 100,> 100,> 100,> 100,> 100,> 100,,> 100,> 100,> 100,> 100,> 100,,> 100,> 100
Cc1nnc2nc(-c3ccc(Cl)cc3Cl)cc(-c3ccc(Cl)cc3)n12,> 100,> 100,> 100,> 100,,> 100,96,> 100,,> 100,> 100,39.6,> 100,> 100,> 100,42.3,> 100
CCOC(=O)C1=C(C)N(Cc2ccc(Cl)cc2Cl)C2(O)C(OC)CC(=O)C3C(=O)N(c4ccccc4)C(=O)C132 (stereo not drawn),2.51,92.8,15.7,7.63,5.29,7.16,7.82,13.5,22.7,18.2,11.8,8.05,9.02,4.11,19.5,4,
COc1cccc(N2CCc3c(C)c(C#N)c4nc5ccccc5n4c32)c1,> 100,60.7,> 100,> 100,> 100,> 100,,> 100,> 100,> 100,> 100,> 100,> 100,> 100,,> 100,
Cn1cc(C=C(C#N)C#N)c(=O)n(C)c1=O,> 100,> 100,> 100,> 100,,> 100,> 100,> 100,> 100,> 100,> 100,> 100,> 100,,> 100,> 100,
COc1ccc(C(F)(F)F)cc1NC(=O)O/N=C(/Cl)C(C)C,46,> 78.3,40.2,56.5,39.3,37.4,6.2,36,66.2,42.5,48.1,35.8,35.6,31.9,3.18,53.3,
C[C@H](C(=O)N1C(=O)O[C@@H](c2ccccc2)[C@H]1C)[C@H](c1ccccc1)N(Cc1ccccc1)OC(=O)c1ccccc1,52.1,> 100,> 100,> 100,85.3,> 100,> 100,> 100,> 100,> 100,> 100,> 100,> 100,> 100,> 100,> 100,
O=c1oc2ccccc2c(O)c1C(c1ccc([N+](=O)[O-])cc1)c1c(O)c2ccccc2oc1=O,> 100,> 100,> 100,> 100,,> 100,> 100,,> 100,> 100,> 100,> 100,> 100,> 100,> 100,> 100,
COc1cccc(NC(=O)c2c(SC)n[nH]c2N)c1,> 100,> 100,,> 100,> 100,> 100,> 100,> 100,> 100,> 100,> 100,> 100,> 100,> 100,> 100,> 100,
C=C(Cl)C(Br)(CCl)CCC(Cl)C(C)C (stereo not drawn) (tested in a mixture with another compound),4.76,7.48,3.79,,10.7,2.49,48,3.87,31.6,3.27,3.67,3.82,13.6,> 100,7.54,2.75,> 100
CCN(CC)CC1CCCCN1CC(=O)N1c2ccc(Br)cc2C(=O)Nc2cccnc21 (stereo not drawn),> 100,> 100,> 100,,> 100,> 100,> 100,> 100,> 100,> 100,> 100,> 100,> 100,> 100,> 100,> 100,> 100
